Test results reported in PubChem BioAssay (NCI).
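Method: 48-hour compound exposure of cells in 96-well plates, five concentrations, linear interpolation of endpoints. At the GI50, growth is halved. TGI denotes the concentration required for complete inhibition of growth.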

Assays:
Test in all cases: growth of human tumour cells (NCI), 48 h
[1] = system: ACHN renal
[2] = system: HOP-92 NSCLC
[3] = system: NCI-H23 lung
[4] = system: DU-145 prostate
[5] = system: EKVX NSCLC
[6] = system: IGROV1 ovarian
[7] = system: UACC-257 melanoma
[8] = system: OVCAR-8 ovarian
[9] = system: U251 CNS
[10] = system: UO-31 renal

Structure (SMILES) | GI50 [1] [µM] | TGI [1] [µM] | GI50 [2] [µM] | TGI [2] [µM] | GI50 [3] [µM] | TGI [3] [µM] | GI50 [4] [µM] | TGI [4] [µM] | GI50 [5] [µM] | TGI [5] [µM] | GI50 [6] [µM] | TGI [6] [µM] | GI50 [7] [µM] | TGI [7] [µM] | GI50 [8] [µM] | TGI [8] [µM] | GI50 [9] [µM] | TGI [9] [µM] | GI50 [10] [µM] | TGI [10] [µM]
O=C1CN=C(c2ccc[nH]2)c2cc(Cl)ccc2N1 | > 100 | > 100 | 12.2 | > 100 | 18.6 | > 100 | > 100 | > 100 | > 100 | > 100 | > 100 | > 100 | > 100 | > 100 | > 100 | > 100 | 71.8 | > 100 | > 100 | > 100
O=CN/C=C/c1ccccc1 | – | > 100 | – | > 100 | – | > 100 | – | > 100 | – | > 100 | – | > 100 | – | > 100 | – | > 100 | – | > 100 | – | > 100
N#Cc1c(N)nc2c(c1-c1ccc(Cl)cc1)COc1ccc(F)cc1-2 | 15.9 | 52.1 | 31.6 | > 100 | 28.4 | > 100 | 29.9 | > 100 | 22 | 63.3 | 14.8 | > 100 | 29.4 | 90.8 | 32.5 | > 100 | 31.7 | > 100 | 13.8 | 39.2
CN1CCc2ccccc2C1Cc1ccccc1NC(=O)c1sc2ccccc2c1Cl (centres undefined) | – | > 100 | – | > 100 | – | > 100 | – | > 100 | – | > 100 | – | > 100 | – | > 100 | – | > 100 | – | > 100 | – | > 100
COc1ccc(OC)c(N2CC(O)=C(c3nc4ccccc4s3)C2=N)c1 | 51.6 | > 100 | 40.6 | > 100 | > 100 | > 100 | > 100 | > 100 | 67.3 | > 100 | 33.1 | > 100 | > 100 | > 100 | 98.7 | > 100 | 51.5 | > 100 | 36.2 | > 100
OCc1ccc(-c2nc(-c3ccc4c(c3)OCO4)c(-c3ccccn3)[nH]2)cc1 | > 25 | > 25 | > 12.9 | > 25 | > 25 | > 25 | > 25 | > 25 | > 25 | > 25 | > 25 | > 25 | > 25 | > 25 | > 25 | > 25 | > 25 | > 25 | > 23.6 | > 25
CCOC(=O)c1c(NN2CCN(CC(F)(F)F)CC2)oc(/C=C2\C=Nc3ncccc32)c1O | 5.85 | 77.4 | 12.9 | 40.9 | 7 | 21.7 | 4.75 | 23.7 | 11.1 | 33.2 | 7.43 | 47.8 | 6.45 | 25.1 | 4.14 | 20.6 | 4.01 | 28 | 5.11 | 28.9
Nc1nc(Sc2ccc([N+](=O)[O-])c3nonc23)c2ncn(C3OC(CO)C(O)C3O)c2n1 (centres undefined) | 0.609 | 23.8 | 0.514 | 18.1 | 1.34 | 13.9 | 0.554 | 27.3 | 2.88 | > 49.8 | 2.58 | 24.2 | – | > 44.8 | 0.794 | > 46 | 0.685 | > 85.1 | 0.902 | 43.6
COc1cc(OC)c(C(=O)/C=C/c2ccc(C#N)cc2)c(OC)c1 | 1.29 | 4.74 | 1.34 | 4.96 | 1.57 | 11.6 | 1.54 | 6.27 | 2.07 | > 50 | 1.56 | 7.75 | 3.35 | 42.2 | 1.98 | > 50 | 1.81 | 7.05 | 1.29 | 6.26
O=C(Nc1ccc(I)cc1F)c1cc(Br)ccc1O | 0.592 | 11.4 | 0.162 | 0.516 | 0.472 | 3.34 | 0.865 | > 67.8 | 1.04 | 7.22 | 0.412 | > 100 | 0.707 | 4.29 | 0.83 | > 24.2 | 0.754 | > 100 | 0.346 | 2.24
